The text below walks through data of US11447494B2, “Tricyclic amine compounds as CDK2 inhibitors” (Incyte Corporation, priority 2019, dated 2022).

For assay [1], the system named is CCNE1 amplified COV318 cells. Kind of assay: Cell cycle analysis by FACS in COV318 cells after p16 or control siRNA. It is filed as cell-based, human. The note with it: 100 nM, 16 hours. The protocol:
To confirm the role of p16 in CDK2-sensitivity of CCNE-amplified cells, COV318 cells were treated with control or p16-specific siRNA.
(§1) Bulk DNA was stained with DAPI. Compound-treated and DMSO treated control cells were acquired with CytoFlex (Beckman Coulter) and were analyzed using the FlowJo software. For cell cycle analysis of cells with siRNA knockdown, 72 hours after siRNA transfection, cells exposed to […] for 3 hours before detection of Click-iT Alexa Fluor® 647 azide kit.

The target in assay [2] is CDK2/Cyclin E1 (Homo sapiens (Human), UniProt P24941). Description: CDK2/Cyclin E1 HTRF enzyme activity assay. The note with it: 1 mM ATP. It is filed as biochemical. The protocol:
CDK2/Cyclin E1 enzyme activity assays utilize full-length human CDK2 co-expressed as N-terminal GST-tagged protein with FLAG-Cyclin E1 in a baculovirus expression system (Carna Product Number 04-165). Assays are conducted in white 384-well polystyrene plates in a final reaction volume of 8 μL. CDK2/Cyclin E1 (0.25 nM) is incubated with compounds (40 nL serially diluted in DMSO) in the presence of ATP (50 μM or 1 mM) and 50 nM ULight™-labeled eIF4E-binding protein 1 (THR37/46) peptide (PerkinElmer) in assay buffer (containing 50 mM HEPES pH 7.5, 1 mM EGTA, 10 mM MgCl2, 2 mM DTT, 0.05 mg/mL BSA, and 0.01% Tween 20) for 60 minutes at room temperature. The reactions are stopped by the addition of EDTA and Europium-labeled anti-phospho-4E-BP1 antibody (PerkinElmer), for a final concentration of 15 mM and 1.5 nM, respectively. HTRF signals are read after 1 hour at room temperature on a PHERAstar FS plate reader (BMG Labtech). Data is analyzed with IDBS XLFit and GraphPad Prism 5.0 software using a three or four parameter dose response curve to determine IC50 for each compound.
(TR-FRET usually uses a lanthanide donor and a delayed reading to cut background.)

The test system of assay [3] is CCNE1-non-amplified cell lines (COV504, OV56, Igrov1). Description: Cell cycle analysis by FACS in CCNE1-non-amplified cell lines. The class given is cell-based, human. The method, then:
(§2) The effect of CDK4/6-inhibition in CCNE1-amplified versus CCNE1-non-amplified cell lines was evaluated.
(§3) A similar experiment was performed in a larger set of CCNE1-amplified cell lines (COV318 and OVCAR3) and CCNE1-non-amplified cell lines (COV504, OV56, and Igrov1) (FIG. 6).
as §1
(In general: In flow cytometry, cells or beads pass a laser one at a time.)

The subject of assay [4] is Rb phosphorylation at S780 in CCNE1-non-amplified cell lines (COV504 and OV56). Description: Western blot of Rb phosphorylation at S780 in CCNE1-non-amplified cell lines. It is filed as cell-based, human. The note with it: 1 or 15 hours, various doses. The protocol:
The effect of CDK4/6-inhibition on Rb phosphorylation at S780 in CCNE1-amplified versus CCNE1-non-amplified cell lines was evaluated. […] One or 15 hours after treatment, the cells were harvested and total protein was extracted and analyzed by western blot (FIG. 8).
Whole cell extracts were prepared using RIPA buffer (Thermo Scientific, 89900) with a Halt Protease and Phosphatase Inhibitor Cocktail (Thermo Scientific, 78440). Protein concentration was quantified with a BCA Protein Assay Kit (Thermo Scientific, 23225) and […] of protein lysates were loaded for SDS-PAGE using precast gradient gels (Bio-Rad, Hercules, No. 456-1094). Samples were diluted in 5× Laemmli buffer (300 mM Tris-HCl pH 6.8, 10% SDS (w/v), 5% 2-mercaptoethanol, 25% glycerol (v/v), 0.1% bromophenol blue w/v) and boiled for 5 minutes. […] of proteins were separated by 8-15% SDS-PAGE and transferred onto polyvinylidene fluoride (PVDF) membranes. Unspecific binding sites on the PVDF membranes were blocked with 5% non-fat milk in TBST (20 mM Tris-HCl, pH 7.6, 137 mM NaCl, 1% Tween-20). […] Images were captured by Luminescence/Fluorescence Imaging System Odyssey CLx Imager (LI-COR).

The subject of assay [5] is CCNE1-amplified cell lines (COV318, OVCAR3). Kind of assay: Cell cycle analysis by FACS in CCNE1-amplified cell lines. It is filed as cell-based, human. The method, then: as §2, §3, §1

SMILES strings stand for the structures. pIC50: −log10 of the molar value.

As a reminder, the pIC50 is −log10 of the IC50, conventionally taken in molar units. A lower pIC50 goes with a high IC50.

Take `C[C@@]1(O)CCC[C@H]1n1c(=O)ccc2cnc(NC3CCN(S(C)(=O)=O)CC3)nc21` [Compound A, 8-((1R,2R)-2-hydroxy-2-methylcyclopentyl)-2-((1-(methylsulfonyl)piperidin-4-yl)amino)pyrido[2,3-d]pyrimidin-7(8H)-one]: the “percentage of S phase cells” value in assay [1] (control siRNA-treated cells) is on record as “significantly decreased”; in assay [1] (p16 knocked down cells, vs DMSO) it was “not significantly decreased”.
The compound `CNS(=O)(=O)c1ccc(Nc2ncc3c(n2)-c2c(nc(C)n2C(C)C)CC3)cc1` [Example 1, 4-((1-Isopropyl-2-methyl-4,5-dihydro-1H-imidazo[4,5-h]quinazolin-8-yl)amino)-N-methylbenzenesulfonamide] had a pIC50 in assay [2] of at least 7.30.
The same measure, in the same setting: the result for `Cc1nc2c(n1C)-c1nc(Nc3ccc(S(=O)(=O)N(C)C)cc3)ncc1CC2` [Example 2, 4-((1,2-Dimethyl-4,5-dihydro-1H-imidazo[4,5-h]quinazolin-8-yl)amino)-N,N-dimethylbenzenesulfonamide] reads at least 7.30.
The same measure, in the same setting: the result for `Cc1nc2c(n1C)-c1nc(Nc3ccc(S(C)(=O)=O)cc3)ncc1CC2` [Example 3, 1,2-Dimethyl-N-(4-(methylsulfonyl)phenyl)-4,5-dihydro-1H-imidazo[4,5-h]quinazolin-8-amine] reads at least 7.30; that for `CNS(=O)(=O)c1ccc(Nc2ncc3c(n2)-c2c(nc(C)n2C)CC3)cc1` [Example 4, 4-((1,2-Dimethyl-4,5-dihydro-1H-imidazo[4,5-h]quinazolin-8-yl)amino)-N-methylbenzenesulfonamide], at least 7.30.
Take `CNS(=O)(=O)c1ccc(Nc2ncc3c(n2)-c2c(nc(C)n2C)CC3)c(F)c1` [Example 5, 4-((1,2-Dimethyl-4,5-dihydro-1H-imidazo[4,5-h]quinazolin-8-yl)amino)-3-fluoro-N-methylbenzenesulfonamide]: the pIC50 in assay [2] is at least 7.30.
As to `Cc1nc2c(n1C)-c1nc(Nc3ccc(S(=O)(=O)NC(C)C)cc3)ncc1CC2` [Example 6, 4-((1,2-Dimethyl-4,5-dihydro-1H-imidazo[4,5-h]quinazolin-8-yl)amino)-N-isopropylbenzenesulfonamide], the pIC50 in assay [2] is at least 7.30.
Still for that read-out and setting: under `Cc1nc2c(n1C)-c1nc(Nc3ccc(S(=O)(=O)NCCO)cc3)ncc1CC2` [Example 7, 4-((1,2-Dimethyl-4,5-dihydro-1H-imidazo[4,5-h]quinazolin-8-yl)amino)-N-(2-hydroxyethyl)benzenesulfonamide] stands at least 7.30; under `NS(=O)(=O)c1ccc(Nc2ncc3c(n2)-n2ccnc2CC3)cc1` [Example 8, 4-((5,6-Dihydroimidazo[1′,2′:1,6]pyrido[2,3-d]pyrimidin-2-yl)amino)benzenesulfonamide], at least 7.30.
`NS(=O)(=O)c1ccc(Nc2ncc3c(n2)-n2ccnc2CO3)cc1` [Example 9, 4-((6H-Imidazo[1,2-d]pyrimido[5,4-b][1,4]oxazin-2-yl)amino)benzenesulfonamide] gave a pIC50 in assay [2] of at least 7.30.
As to `Cc1nc2c(n1C)-c1nc(Nc3ccc(S(=O)(=O)NCCN(C)C)cc3F)ncc1CC2` [Example 10, 4-((1,2-Dimethyl-4,5-dihydro-1H-imidazo[4,5-h]quinazolin-8-yl)amino)-N-(2-(dimethylamino)ethyl)-3-fluorobenzenesulfonamide], the pIC50 in assay [2] is at least 7.30.
With `Cc1nc2c(n1C)-c1nc(Nc3ccc(S(=O)(=O)NCCCN(C)C)cc3F)ncc1CC2` [Example 11, 4-((1,2-Dimethyl-4,5-dihydro-1H-imidazo[4,5-h]quinazolin-8-yl)amino)-N-(3-(dimethylamino)propyl)-3-fluorobenzenesulfonamide], in assay [2], the pIC50 is at least 7.30.
Same read-out and setting: the result for `Cc1nc2c(n1C)-c1nc(Nc3ccc(S(=O)(=O)NCC4CCOC4)cc3F)ncc1CC2` (stereo not shown) [Example 12, 4-((1,2-Dimethyl-4,5-dihydro-1H-imidazo[4,5-h]quinazolin-8-yl)amino)-3-fluoro-N-((tetrahydrofuran-3-yl)methyl)benzenesulfonamide] reads at least 7.30.
For the compound `CC(=O)c1c(C)c2cnc(Nc3ccc(N4CCNCC4)cn3)nc2n(C2CCCC2)c1=O` [palbociclib], the “percentage of cells at the S phase, compared to DMSO” value is given as “decreased in CCNE1-non-amplified cell lines in a dose-dependent fashion” in assay [3] (COV504, OV56, Igrov1, 16 hours after treatment); “not significantly different” in assay [5] (COV318 and OVCAR3, 16 hours after treatment). The “inhibition of proliferation (cell cycle analysis)” value in assay [3] (COV504 cells, 16 hours, increasing concentrations) is “dose-dependent inhibition of the proliferation”; in assay [5] (OVCAR3 cells, 16 hours, increasing concentrations), “not in CCNE1-amplified cells”. For the same compound, in assay [4], the “Rb phosphorylation at S780” value is “blocked Rb phosphorylation at S780”.
